Laboratory results published in the supplement of paper PMC10307832.

Key:
Assay in all cases: relative viability (nuclei count vs DMSO), 5 days (fraction); higher = more cells survive
[1] = compound: CO[C@H]1C[C@@H]2CC[C@@H](C)[C@@](O)(O2)C(=O)C(=O)N2CCCC[C@H]2C(=O)O[C@H]([C@H](C)C[C@@H]2CC[C@@H](OCCO)[C@H](OC)C2)CC(=O)[C@H](C)/C=C(\C)[C@@H](O)[C@@H](OC)C(=O)[C@H](C)C[C@H](C)/C=C/C=C/C=C/1C [Everolimus] + CC(=O)c1c(C)c2cnc(Nc3ccc(N4CCNCC4)cn3)nc2n(C2CCCC2)c1=O [Palbociclib] (partner 0.5 µM)
Summary of the method: (§1)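 A single step with final 0.05% Triton X-100, 1% formaldehyde and 1 ug/ml Hoechst fixed the cells and stained nuclei 5 days after treatment. Lung cancer cell lines in 1536-well plates had been treated by pin tool the day after seeding with one drug alone or a fixed anchor-drug dose plus five library-drug doses (not always all listed) in √10 steps, and nuclei were counted on 4× images. Relative viability is the ratio of nuclei in treated wells to nuclei in vehicle wells, taken as the median of duplicate plates.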

[2] = compound: CO[C@H]1C[C@@H]2CC[C@@H](C)[C@@](O)(O2)C(=O)C(=O)N2CCCC[C@H]2C(=O)O[C@H]([C@H](C)C[C@@H]2CC[C@@H](OCCO)[C@H](OC)C2)CC(=O)[C@H](C)/C=C(\C)[C@@H](O)[C@@H](OC)C(=O)[C@H](C)C[C@H](C)/C=C/C=C/C=C/1C [Everolimus] + CC(C)C[C@H](NC(=O)[C@H](Cc1ccccc1)NC(=O)c1cnccn1)B(O)O [Bortezomib] (partner 0.002 µM)
Summary of the method: as §1

[3] = compound: CO[C@H]1C[C@@H]2CC[C@@H](C)[C@@](O)(O2)C(=O)C(=O)N2CCCC[C@H]2C(=O)O[C@H]([C@H](C)C[C@@H]2CC[C@@H](OCCO)[C@H](OC)C2)CC(=O)[C@H](C)/C=C(\C)[C@@H](O)[C@@H](OC)C(=O)[C@H](C)C[C@H](C)/C=C/C=C/C=C/1C [Everolimus] + COc1cc2c(Oc3ccc(NC(=O)C4(C(=O)Nc5ccc(F)cc5)CC4)cc3F)ccnc2cc1OCCCN1CCOCC1 [Foretinib] (partner 0.25 µM)
Summary of the method: as §1

[4] = compound: CO[C@H]1C[C@@H]2CC[C@@H](C)[C@@](O)(O2)C(=O)C(=O)N2CCCC[C@H]2C(=O)O[C@H]([C@H](C)C[C@@H]2CC[C@@H](OCCO)[C@H](OC)C2)CC(=O)[C@H](C)/C=C(\C)[C@@H](O)[C@@H](OC)C(=O)[C@H](C)C[C@H](C)/C=C/C=C/C=C/1C [Everolimus] + CS(=O)(=O)N1CCN(Cc2cc3nc(-c4cccc5[nH]ncc45)nc(N4CCOCC4)c3s2)CC1 [Pictilisib] (partner 1 µM)
Summary of the method: as §1

Cell Line | relative viability ([1]; first compound 0.01 µM) | relative viability ([1]; first compound 0.03162 µM) | relative viability ([1]; first compound 0.1 µM) | relative viability ([1]; first compound 0.3162 µM) | relative viability ([1]; first compound 1 µM) | relative viability ([2]; first compound 0.01 µM) | relative viability ([2]; first compound 0.03162 µM) | relative viability ([2]; first compound 0.1 µM) | relative viability ([2]; first compound 0.3162 µM) | relative viability ([2]; first compound 1 µM) | relative viability ([3]; first compound 0.01 µM) | relative viability ([3]; first compound 0.03162 µM) | relative viability ([3]; first compound 0.1 µM) | relative viability ([3]; first compound 0.3162 µM) | relative viability ([3]; first compound 1 µM) | relative viability ([4]; first compound 0.01 µM) | relative viability ([4]; first compound 0.03162 µM) | relative viability ([4]; first compound 0.1 µM) | relative viability ([4]; first compound 0.3162 µM) | relative viability ([4]; first compound 1 µM)
NCI-H460 | 0.104 | 0.165 | 0.123 | 0.0825 | 0.0699 | 0.827 | 0.982 | 0.672 | 0.881 | 1.08 | 1.01 | 1.01 | 0.969 | 0.942 | 1.11 | 0.305 | 0.441 | 0.27 | 0.299 | 0.319
NCI-H520 | 0.155 | 0.182 | 0.194 | 0.14 | 0.194 | 0.327 | 0.282 | 0.243 | 0.195 | 0.276 | 0.478 | 0.335 | 0.321 | 0.434 | 0.349 | 0.186 | 0.197 | 0.204 | 0.185 | 0.165
NCI-H647 | 0.194 | 0.231 | 0.159 | 0.137 | 0.219 | 0.635 | 0.59 | 0.601 | 0.635 | 0.693 | 0.957 | 0.697 | 0.646 | 0.776 | 0.612 | 0.261 | 0.299 | 0.215 | 0.213 | 0.256
NCI-H650 | 0.368 | 0.262 | 0.279 | 0.278 | 0.248 | 0.649 |  | 0.556 | 0.571 | 0.458 | 1.01 |  | 0.842 | 0.816 | 0.649 | 0.688 |  | 0.498 | 0.569 | 0.505
NCI-H661 | 0.334 | 0.321 | 0.328 | 0.31 | 0.295 | 0.592 | 0.572 | 0.518 | 0.421 | 0.386 | 0.876 | 0.702 | 0.738 | 0.73 | 0.664 | 0.301 | 0.253 | 0.235 | 0.305 | 0.296
NCI-H727 | 0.642 | 0.529 | 0.725 | 0.613 | 0.643 | 0.513 | 0.546 | 0.434 | 0.597 | 0.52 | 0.67 | 0.569 | 0.611 | 0.603 | 0.425 | 0.268 | 0.274 | 0.309 | 0.239 | 0.275
NCI-H838 | 0.144 | 0.146 | 0.159 | 0.174 | 0.123 | 0.42 | 0.48 | 0.377 | 0.41 | 0.597 | 0.586 | 0.629 | 0.518 | 0.551 | 0.56 | 0.222 | 0.219 | 0.247 | 0.208 | 0.262
NCI-H1355 | 0.229 | 0.233 | 0.207 | 0.213 | 0.21 | 0.611 | 0.567 | 0.593 | 0.592 | 0.564 | 0.606 | 0.548 | 0.477 | 0.421 | 0.482 | 0.251 | 0.238 | 0.181 | 0.265 | 0.275
